The text below walks through data of PubChem BioAssay AID1195 (EPA DSSTox, 2008).

Structures are written as SMILES.

The series relates to human maximum recommended daily dose, FDA database. The series can be described thus: DSSTox (FDAMDD) FDA Maximum (Recommended) Daily Dose Database. To be noted: hits give low values. In outline: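 MRDD values come from clinical trials with daily oral dosing, usually for 3–12 months, for the average adult, in mg/day converted to mg/kg-bw/day assuming 60 kg. Antineoplastic mg/m2 doses are divided by 37. Activity score maps log10(1/MRDD mmol) onto 1–100.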

Where [1] appears, read: TherapeuticCategory: antibacterial.
The mark [2] stands for this setting: TherapeuticCategory: antidepressant.
Where [3] appears, read: TherapeuticCategory: diuretic, antihypertensive.
Where [4] appears, read: TherapeuticCategory: antipsychotic.
Where [5] appears, read: TherapeuticCategory: analgesic, anti inflammatory.
Setting [6] is: TherapeuticCategory: antihypertensive.
[7] abbreviates: TherapeuticCategory: diagnostic aid.
[8] abbreviates: TherapeuticCategory: bronchodilator.
Where [9] appears, read: TherapeuticCategory: anticonvulsant.
[10] abbreviates: TherapeuticCategory: gonad stimulating.
Setting [11] is: TherapeuticCategory: antineoplastic.

For `CCN(CC)C(=O)c1ccc(O)c(OC)c1`, under “TherapeuticCategory: central and respiratory stimulant”, the maximum recommended daily dose (mmol/kg-bw/day) was 0.0187.

As to `C=CC1=C(C(=O)O)N2C(=O)[C@@H](NC(=O)/C(=N\OCC(=O)O)c3csc(N)n3)[C@H]2SC1`, under setting [1], the maximum recommended daily dose (mmol/kg-bw/day) is 0.0293.

Consider `CO/N=C(\C(=O)N[C@@H]1C(=O)N2C(C(=O)O)=C(CSc3nc(=O)c(=O)[nH]n3C)CS[C@H]12)c1csc(N)n1`, for which the maximum recommended daily dose (mmol/kg-bw/day) under setting [1] was 0.12.

On to `C=CCN1CC[C@]23c4c5ccc(O)c4O[C@H]2[C@@H](O)C=C[C@H]3[C@H]1C5`, for which, where the note is “TherapeuticCategory: narcotic antagonist”, the maximum recommended daily dose (mmol/kg-bw/day) is 0.00214.

As to `CNCCC(Oc1ccc(C(F)(F)F)cc1)c1ccccc1` (centres undefined), the maximum recommended daily dose (mmol/kg-bw/day) under setting [2] was 0.0043.

Consider `CCSc1ccc2c(c1)N(CCCN1CCN(C)CC1)c1ccccc1S2`, for which the maximum recommended daily dose (mmol/kg-bw/day) (TherapeuticCategory: antiemetic) is 0.00125.

As to `CC(=O)Oc1cc(C(C)C)c(OCCN(C)C)cc1C`, the maximum recommended daily dose (mmol/kg-bw/day) (TherapeuticCategory: vasodilator) was 0.0191.

As for `Cc1[nH]c(=O)c(C#N)cc1-c1ccncc1`, the maximum recommended daily dose (mmol/kg-bw/day) (TherapeuticCategory: cardiotonic) was 0.000237.

As for `NS(=O)(=O)c1cc2c(cc1Cl)NC(C(Cl)Cl)NS2(=O)=O` (centres undefined), the maximum recommended daily dose (mmol/kg-bw/day) under setting [3] was 0.000175.

For the compound `COc1cc(OC)c(C(=O)CCCN2CCCC2)c(OC)c1`, the maximum recommended daily dose (mmol/kg-bw/day) (TherapeuticCategory: peripheral vasodilator) is 0.0325.

Turning to `COc1ccc2cc1Oc1cc3c(cc1OC)CC[N+](C)(C)[C@H]3Cc1ccc(cc1)Oc1c(OC)c(OC)cc3c1[C@@H](C2)[N+](C)(C)CC3`, the maximum recommended daily dose (mmol/kg-bw/day) (TherapeuticCategory: skeletal muscle relaxant) was 0.000441.

As for `CC(C)(C)CC(=O)OCC(=O)[C@@]1(O)CC[C@H]2[C@@H]3CCC4=CC(=O)C=C[C@]4(C)[C@H]3[C@@H](O)C[C@@]21C`, where the note is “TherapeuticCategory: glucocorticoid”, the maximum recommended daily dose (mmol/kg-bw/day) was 0.00726.

For the compound `CN(C)CCCN1c2ccccc2Sc2ccccc21`, the maximum recommended daily dose (mmol/kg-bw/day) under setting [4] was 0.0587.

For `O=C(Oc1ccccc1C(=O)O)c1ccccc1O`, the maximum recommended daily dose (mmol/kg-bw/day) under setting [5] is 0.258.

On to `COC(=O)[C@H]1[C@H]2C[C@@H]3c4[nH]c5cc(OC)ccc5c4CCN3C[C@H]2C[C@@H](OC(=O)c2cc(OC)c(OC)c(OC)c2)[C@@H]1OC`, for which, under setting [6], the maximum recommended daily dose (mmol/kg-bw/day) is 1.64e-05.

For `CCN(CC)CCNc1ccc(C)c2sc3ccccc3c(=O)c12`, the maximum recommended daily dose (mmol/kg-bw/day) (TherapeuticCategory: antihelmintic) is 0.0978.

Take `C[C@]12CC[C@H]3[C@@H](CC=C4C[C@@H](O)CC[C@@]43C)[C@@H]1CC[C@@H]2O`: the maximum recommended daily dose (mmol/kg-bw/day) (TherapeuticCategory: anabolic) was 0.00861.

On to `O=C(CCCCC(=O)Nc1c(I)cc(I)c(C(=O)O)c1I)Nc1c(I)cc(I)c(C(=O)O)c1I`, for which, under setting [7], the maximum recommended daily dose (mmol/kg-bw/day) was 0.147.

Turning to `O=C(CCCN1CC=C(n2c(=O)[nH]c3ccccc32)CC1)c1ccc(F)cc1`, the maximum recommended daily dose (mmol/kg-bw/day) under setting [4] is 0.000725.

Consider `NC[C@H]1O[C@H](O[C@H]2[C@H](O)[C@@H](O[C@H]3O[C@H](CO)[C@@H](O)[C@H](N)[C@H]3O)[C@H](N)C[C@@H]2N)[C@H](N)[C@@H](O)[C@@H]1O`, for which the maximum recommended daily dose (mmol/kg-bw/day) under setting [1] is 0.031.

As for `CCC(C)CON=O` (centres undefined), the maximum recommended daily dose (mmol/kg-bw/day) (TherapeuticCategory: none) is 0.0427.

Consider `CC(=O)NCCOC(=O)C(Oc1cccc(C(F)(F)F)c1)c1ccc(Cl)cc1` (centres undefined), for which the maximum recommended daily dose (mmol/kg-bw/day) (TherapeuticCategory: antihyperlipoproteinemic, uricosuric) is 0.0402.

For the compound `O=C(O)c1ccccc1Nc1cccc(C(F)(F)F)c1`, the maximum recommended daily dose (mmol/kg-bw/day) under setting [5] was 0.0356.

On to `CCN(CC)CCOC(=O)C1(c2ccccc2)CCCC1`, for which the maximum recommended daily dose (mmol/kg-bw/day) (TherapeuticCategory: antitussive) was 0.0173.

On to `OCc1cc(C(O)CNCCCCCCOCCCCc2ccccc2)ccc1O` (centres undefined), for which, under setting [8], the maximum recommended daily dose (mmol/kg-bw/day) was 3.37e-06.

With `Cc1cc(CC(=O)O)n(C)c1C(=O)c1ccc(Cl)cc1`, the maximum recommended daily dose (mmol/kg-bw/day) under setting [5] was 0.0343.

On to `C[C@]12CC[C@@H]3c4ccc(O)cc4CC[C@H]3[C@@H]1CC[C@@H]2O`, for which, where the note is “TherapeuticCategory: estrogen”, the maximum recommended daily dose (mmol/kg-bw/day) is 0.00184.

`CCN1C(=O)NC(c2ccccc2)C1=O` (centres undefined): the maximum recommended daily dose (mmol/kg-bw/day) under setting [9] was 0.245.

For `CC1=C(/C=C/C(C)=C/C=C/C(C)=C\C(=O)O)C(C)(C)CCC1`, the maximum recommended daily dose (mmol/kg-bw/day) (TherapeuticCategory: keratolytic) is 0.00666.

`CC(C[N+](C)(C)C)OC(N)=O` (centres undefined): the maximum recommended daily dose (mmol/kg-bw/day) (TherapeuticCategory: cholinergic) is 0.0169.

Turning to `O=c1oc2ccccc2c(O)c1Cc1c(O)c2ccccc2oc1=O`, the maximum recommended daily dose (mmol/kg-bw/day) (TherapeuticCategory: anticoagulant) is 0.0149.

Consider `CN1C(=O)CC(c2ccccc2)C1=O` (centres undefined), for which the maximum recommended daily dose (mmol/kg-bw/day) under setting [9] is 0.264.

`CCC1(c2ccccc2)NC(=O)N(C)C1=O` (centres undefined): under setting [9], the maximum recommended daily dose (mmol/kg-bw/day) is 0.0458.

In the case of `CCN(CC)CCOc1ccc(/C(=C(\Cl)c2ccccc2)c2ccccc2)cc1`, the maximum recommended daily dose (mmol/kg-bw/day) under setting [10] is 0.00411.

Consider `C#C[C@]1(OC(C)=O)CC[C@H]2[C@@H]3CCC4=C[C@@H](OC(C)=O)CC[C@@H]4[C@H]3CC[C@@]21C`, for which the maximum recommended daily dose (mmol/kg-bw/day) (TherapeuticCategory: progestogen) is 4.34e-05.

Regarding `CCN(CC)C(=O)C1CN2CCc3cc(OC)c(OC)cc3C2CC1OC(C)=O` (centres undefined), the maximum recommended daily dose (mmol/kg-bw/day) (TherapeuticCategory: antipsychotic, antiemeic) was 0.00103.

With `CN(C)c1nc(N(C)C)nc(N(C)C)n1`, the maximum recommended daily dose (mmol/kg-bw/day) under setting [11] is 0.0257.

As for `CCC(C)C(C(=O)OC1CCN(C)CC1)c1ccccc1` (centres undefined), the maximum recommended daily dose (mmol/kg-bw/day) (TherapeuticCategory: anticholinergic) is 0.00173.

`CCOC(=O)CCCCCCCCC(C)c1cccc(I)c1` (centres undefined): the maximum recommended daily dose (mmol/kg-bw/day) under setting [7] was 0.3.

Take `CC(=O)Oc1ccc(C(=C2CCCCC2)c2ccc(OC(C)=O)cc2)cc1`: the maximum recommended daily dose (mmol/kg-bw/day) under setting [10] was 0.0183.

Consider `C=C[C@H]1CN2CC[C@H]1C[C@@H]2[C@@H](O)c1ccnc2ccc(OC)cc12`, for which, where the note is “TherapeuticCategory: anthiarrythmic”, the maximum recommended daily dose (mmol/kg-bw/day) was 0.0308.

On to `OC[C@H]1OC(O)[C@H](O)[C@@H](O)[C@H]1O` (some centres undefined), for which, where the note is “TherapeuticCategory: diagnostic aid, hepatic function”, the maximum recommended daily dose (mmol/kg-bw/day) was 0.555.

Regarding `Cc1nc(NS(=O)(=O)c2ccc(N)cc2)oc1C`, the maximum recommended daily dose (mmol/kg-bw/day) under setting [1] was 0.125.

Regarding `OC1C(O)C(O)C(O)C(O)C1O` (centres undefined), the maximum recommended daily dose (mmol/kg-bw/day) (TherapeuticCategory: vitamin B complex, lipotropic) is 0.555.

As to `CCC(COC(=O)c1cc(OC)c(OC)c(OC)c1)(c1ccccc1)N(C)C` (centres undefined), for the setting “TherapeuticCategory: antispasmodic”, the maximum recommended daily dose (mmol/kg-bw/day) is 0.0258.

As for `CC(CCc1ccccc1)NCC(O)c1ccc(O)c(C(N)=O)c1` (centres undefined), the maximum recommended daily dose (mmol/kg-bw/day) under setting [6] was 0.122.

As for `Nc1nc2c(ncn2COCCO)c(=O)[nH]1`, for the setting “TherapeuticCategory: antiviral”, the maximum recommended daily dose (mmol/kg-bw/day) was 0.0591.

For `CN1C(=O)CN=C(c2ccccc2)c2cc([N+](=O)[O-])ccc21`, the maximum recommended daily dose (mmol/kg-bw/day) (TherapeuticCategory: anticonvulsant, skeletal muscle relaxant) was 0.000282.

As to `C[C@]12CCC(=O)C=C1CC[C@H]1[C@@H]3CC[C@](O)(C(=O)CO)[C@@]3(C)C[C@H](O)[C@@]12F`, the maximum recommended daily dose (mmol/kg-bw/day) (TherapeuticCategory: mineralcorticoid) was 4.39e-06.

For `CCC[C@@H]1C[C@@H](C(=O)N[C@@H]([C@H]2O[C@H](SC)[C@H](O)[C@@H](O)[C@H]2O)[C@@H](C)O)N(C)C1`, the maximum recommended daily dose (mmol/kg-bw/day) under setting [1] is 0.0819.

With `CCCN1C[C@H](CSC)C[C@@H]2c3cccc4[nH]cc(c34)C[C@H]21`, the maximum recommended daily dose (mmol/kg-bw/day) (TherapeuticCategory: antiparkinsonian, dopamine receptor agonist) is 0.000159.

Regarding `NC(N)=NCCCC(N)C(=O)O` (centres undefined), the maximum recommended daily dose (mmol/kg-bw/day) (TherapeuticCategory: ammonia detoxicant, diagnostic aid) is 2.87.

In the case of `COc1ccc2c(c1)N(C[C@H](C)CN(C)C)c1ccccc1S2`, the maximum recommended daily dose (mmol/kg-bw/day) (TherapeuticCategory: analgesic) is 0.0101.

Regarding `CC(C)(C)c1nnc(NS(=O)(=O)c2ccccc2)s1`, the maximum recommended daily dose (mmol/kg-bw/day) (TherapeuticCategory: antidiabetic) is 0.042.

Regarding `Cn1c(=O)c2c(ncn2CCOC(=O)C(C)(C)Oc2ccc(Cl)cc2)n(C)c1=O`, under setting [8], the maximum recommended daily dose (mmol/kg-bw/day) was 0.0297.

Regarding `O=C(Cn1c(=O)sc2ccc(Cl)cc21)N1CCN(CCO)CC1`, the maximum recommended daily dose (mmol/kg-bw/day) (TherapeuticCategory: antiasthmatic, anti inflammatry) is 0.0141.

Regarding `CCOC(=O)c1c(N)sc2c1CCN(Cc1ccccc1)C2`, the maximum recommended daily dose (mmol/kg-bw/day) (TherapeuticCategory: analgesic, antipyretic, anti inflammatory) is 0.0158.

For `Cc1cccc(Nc2ccncc2S(=O)(=O)NC(=O)NC(C)C)c1`, where the note is “TherapeuticCategory: diuretic”, the maximum recommended daily dose (mmol/kg-bw/day) was 0.00956.

Consider `Nc1ncnc2c1ncn2[C@@H]1O[C@H](COP(=O)(O)O)[C@@H](O)[C@H]1O`, for which the maximum recommended daily dose (mmol/kg-bw/day) (TherapeuticCategory: antiarrhythmic) is 0.000959.

Regarding `OCCN(CCO)c1nc(-c2ccccc2)c(-c2ccccc2)o1`, the maximum recommended daily dose (mmol/kg-bw/day) (TherapeuticCategory: anti inflammatory) was 0.0617.

As to `OCCN(CCO)CCO`, the maximum recommended daily dose (mmol/kg-bw/day) (TherapeuticCategory: analgesic) is 0.067.

As for `CCOC(=O)C1=C(C)NC(C)=C(C(=O)OC)C1c1cccc([N+](=O)[O-])c1` (centres undefined), the maximum recommended daily dose (mmol/kg-bw/day) under setting [6] is 0.000924.

For the compound `NS(=O)(=O)c1cc(C2(O)NC(=O)c3ccccc32)ccc1Cl` (centres undefined), under setting [3], the maximum recommended daily dose (mmol/kg-bw/day) was 0.00246.

Take `OC[C@H]1O[C@@H](O[C@H]2[C@H](O)[C@@H](O)[C@H](O)O[C@@H]2CO)[C@H](O)[C@@H](O)[C@H]1O`: the maximum recommended daily dose (mmol/kg-bw/day) (TherapeuticCategory: none) was 0.292.

Consider `COc1c(C)c2c(c(O)c1C/C=C(\C)CCC(=O)OCCN1CCOCC1)C(=O)OC2`, for which the maximum recommended daily dose (mmol/kg-bw/day) under setting [11] is 0.277.

Turning to `CC(C)CC1Nc2cc(Cl)c(S(N)(=O)=O)cc2S(=O)(=O)N1` (centres undefined), under setting [3], the maximum recommended daily dose (mmol/kg-bw/day) is 0.000707.

For `CC(=O)c1ccc2c(c1)N(CCCN(C)C)c1ccccc1S2`, the maximum recommended daily dose (mmol/kg-bw/day) (TherapeuticCategory: tranquilizer) is 0.000459.

With `Fc1ccc([C@@H]2CCNC[C@H]2COc2ccc3c(c2)OCO3)cc1`, the maximum recommended daily dose (mmol/kg-bw/day) under setting [2] is 0.00253.

As to `O=C(O)[C@H]1/C(=C/CO)O[C@@H]2CC(=O)N21`, the maximum recommended daily dose (mmol/kg-bw/day) under setting [1] was 0.0314.
